Assay results as given in article PMC6576746, “Rational discovery of dual-indication multi-target PDE/Kinase inhibitor for precision anti-cancer therapy using structural systems pharmacology” (PLoS Computational Biology, 2019).

Assays:
Assay in all cases: cells
Design in all cases: species or system panel of human cancer cell lines; Eurofins OncoPanel proliferation; nuclei count by high-content fluorescence imaging, 10-point dose response
639-V = settings: Homo sapiens, 639-V, 72 h, cell count, 3 days
Method: (§1) OncoPanel cancer cell proliferation assay was performed by Eurofins Panlabs, Inc. (Missouri, USA). Cancer cells were grown in RPMI 1640, 10% FBS, 2 mM L-alanyl-L-glutamine, 1 mM Na pyruvate, or a special medium. Cells were seeded into 384-well plates and incubated in a humidified atmosphere of 5% CO2 at 37°C. Compounds were added the day following cell seeding. At the same time, a time zero untreated cell plate was generated. After a 3-day incubation period, cells were fixed and stained to allow fluorescence imaging of nuclei. Levosimendan was serially diluted in half-log steps from 100 μM and assayed over 10 concentrations with a maximum assay concentration of 0.1% DMSO. Automated fluorescence microscopy was carried out using a Molecular Devices ImageXpress Micro XL high-content imager, and images were collected with a 4X objective. 16-bit TIFF images were acquired and analyzed with MetaXpress 5.1.0.41 software. Cell count EC50 is the test concentration at the curve inflection point (parameter C), or half the effective response. IC50 is the test compound concentration at 50% of the maximum possible response. GI50 is the concentration needed to reduce the observed growth by half (midway between the relative cell count at the curve maximum and at the time of compound addition). Activity area is an estimate of the integrated area above the response curve. Activity area values range from 0–10, where a value of zero indicates no inhibition of proliferation at all concentrations, and a value of 10 indicates complete inhibition of proliferation at all concentrations.

Caki-2 = settings: Homo sapiens, CAKI-2, 72 h, cell count, 3 days
Method: as §1

Capan-2 = settings: Homo sapiens, Capan-2, 72 h, cell count, 3 days
Method: as §1

HEC-1-A = settings: Homo sapiens, HEC-1-A, 72 h, cell count, 3 days
Method: as §1

HUH-6 Clone 5 = settings: HUH-6-clone5, 72 h, cell count, 3 days
Method: as §1

Hs 729 = settings: 72 h, cell count, 3 days
Method: as §1

Jiyoye = settings: Homo sapiens, JIYOYE, 72 h, cell count, 3 days
Method: as §1

MHH-PREB-1 = settings: Homo sapiens, MHH-PREB-1, 72 h, cell count, 3 days
Method: as §1

NCI-H508 = settings: Homo sapiens, NCI-H508, 72 h, cell count, 3 days
Method: as §1

OE21 = settings: OE21, 72 h, cell count, 3 days
Method: as §1

RS4;11 = settings: Homo sapiens, RS4-11, 72 h, cell count, 3 days
Method: as §1

Raji = settings: Homo sapiens, Raji, 72 h, cell count, 3 days
Method: as §1

SW-13 = settings: Homo sapiens, SW13, 72 h, cell count, 3 days
Method: as §1

T98G = settings: Homo sapiens, T98G, 72 h, cell count, 3 days
Method: as §1

[1] = 50% of maximum possible response

IC50 (HUH-6 Clone 5; [1]): 27.1 µM | GI50 (HUH-6 Clone 5; corrected for time zero): 20 µM | EC50 (HUH-6 Clone 5; curve inflection point): 27.1 µM | IC50 (NCI-H508; [1]): 38.4 µM | GI50 (NCI-H508; corrected for time zero): 33.5 µM | EC50 (NCI-H508; curve inflection point): 38.4 µM | IC50 (RS4;11; [1]): 29.7 µM | GI50 (RS4;11; corrected for time zero): 19.6 µM | EC50 (RS4;11; curve inflection point): 25.4 µM | IC50 (Raji; [1]): 69.1 µM | GI50 (Raji; corrected for time zero): 63.4 µM | EC50 (Raji; curve inflection point): 69.1 µM | IC50 (SW-13; [1]): 6.13 µM | GI50 (SW-13; corrected for time zero): 3.72 µM | EC50 (SW-13; curve inflection point): 6.13 µM
SMILES: C[C@@H]1CC(=O)NN=C1c1ccc(NN=C(C#N)C#N)cc1 [levosimendan]
IC50 (639-V; [1]): 6.97 µM | GI50 (639-V; corrected for time zero): 6.51 µM | EC50 (639-V; curve inflection point): 5.59 µM | IC50 (Caki-2; [1]): > 100 µM | GI50 (Caki-2; corrected for time zero): > 100 µM | EC50 (Caki-2; curve inflection point): > 100 µM | IC50 (Capan-2; [1]): 49.7 µM | GI50 (Capan-2; corrected for time zero): 42.3 µM | EC50 (Capan-2; curve inflection point): 49.7 µM | IC50 (HEC-1-A; [1]): 34.3 µM | GI50 (HEC-1-A; corrected for time zero): 28.2 µM | EC50 (HEC-1-A; curve inflection point): 34.3 µM | IC50 (Hs 729; [1]): > 100 µM | GI50 (Hs 729; corrected for time zero): 79.3 µM | EC50 (Hs 729; curve inflection point): > 100 µM | IC50 (Jiyoye; [1]): 62.5 µM | GI50 (Jiyoye; corrected for time zero): 54.6 µM | EC50 (Jiyoye; curve inflection point): 62.5 µM | IC50 (MHH-PREB-1; [1]): 7.64 µM | GI50 (MHH-PREB-1; corrected for time zero): 7.08 µM | EC50 (MHH-PREB-1; curve inflection point): 7.4 µM | IC50 (OE21; [1]): 85.5 µM | GI50 (OE21; corrected for time zero): 76 µM | EC50 (OE21; curve inflection point): 85.5 µM | IC50 (T98G; [1]): > 100 µM | GI50 (T98G; corrected for time zero): > 100 µM | EC50 (T98G; curve inflection point): > 100 µM
